# Data published in patent publication US8987500B2, “4-biphenyl-substituted pyrazolidin-3,5-dione derivatives” (Bayer CropScience AG, priority 2003, dated 2015).
# Experiments:
# Format in all cases: in vivo
# [1] = system: greenhouse red spider mite (Tetranychus urticae); experiment: Tetranychus test (OP-resistant/spray treatment), Example G; details: Tetranychus urticae (OP-resistant), bean leaf discs, spray treatment
# Description: Tetranychus Test (OP-Resistant/Spray Treatment)
# (§1) To produce a suitable preparation of active compound, 1 part by weight of active compound is mixed with the stated amounts of solvents and emulsifier, and the concentrate is diluted with emulsifier-containing water to the desired concentration.
# Discs of bean leaves (Phaseolus vulgaris) which are infested by all stages of the greenhouse red spider mite (Tetranychus urticae) are sprayed with a preparation of active compound of the desired concentration.
# After the desired period of time, the activity in % is determined 100% means that all spider mites have been killed; 0% means that none of the spider mites have been killed.
# [2] = system: larvae of the mustard beetle (Phaedon cochleariae); experiment: Phaedon test (spray treatment), Example E; details: Table E, 500 g/ha active compound
# Description: (§2) Phaedon Test (Spray Treatment) [table] To produce a suitable preparation of active compound, 1 part by weight of active compound is mixed with the stated amounts of solvents and emulsifier, and the concentrate is diluted with emulsifier-containing water to the desired concentration. Discs of Chinese cabbage (Brassica pekinensis) are sprayed with a preparation of active compound of the desired concentration and, after they have dried, populated with larvae of the mustard beetle (Phaedon cochleariae). After the desired period of time, the activity in % is determined 100% means that all beetle larvae have been killed; 0% means that none of the beetle larvae have been killed.
# [3] = system: green peach aphid (Myzus persicae); experiment: Myzus test (spray treatment), Example D; details: Table D
# Description: Myzus Test (Spray Treatment)
# as §1
# Discs of Chinese cabbage (Brassica pekinensi), which are infested by all stages of the green peach aphid (Myzus persicae) are sprayed with a preparation of active compound of the desired concentration.
# After the desired period of time, the activity in % is determined 100% means that all aphids have been killed; 0% means that none of the aphids have been killed.
# [4] = system: caterpillars of the army worm (Spodoptera frugiperda); experiment: Spodoptera frugiperda test (spray treatment), Example F; details: maize leaf discs
# Description: as §2, with “Spodoptera frugiperda” for “Phaedon”, “maize leaves (Zea mays)” for “Chinese cabbage (Brassica pekinensis)”, “caterpillars” for “larvae”, “army worm (Spodoptera frugiperda).” for “mustard beetle (Phaedon cochleariae).”, “caterpillars” for “beetle larvae”
smiles,measurement,setting,value
Cc1ccc(-c2ccc(C)c(-c3c(OC(=O)C(C)(C)C)n4n(c3=O)CCCC4)c2)cc1 [Ex. I-1-b-9],Kill rate in % after 5d,[1]; 500 g/ha,100%
Cc1ccc(-c2cccc(Cl)c2Cl)cc1-c1c(OC(=O)C(C)(C)C)n2n(c1=O)CCCC2 [Ex. I-1-b-10],Kill rate in % after 5d,[1]; 500 g/ha,90%
Cc1ccc(-c2ccc(Cl)c(Cl)c2)cc1-c1c(OC(=O)C(C)(C)C)n2n(c1=O)CCCC2 [Ex. I-1-b-13],Kill rate in % after 7d,[2],100%
Cc1ccc(-c2cc(Cl)cc(Cl)c2)cc1-c1c(OC(=O)C(C)(C)C)n2n(c1=O)CCCC2 [Ex. I-1-b-14],Kill rate in % after 5d,[3]; 500 g/ha active compound,100%
Cc1ccc(-c2ccc(F)cc2F)cc1-c1c(OC(=O)C(C)(C)C)n2n(c1=O)CCCC2 [Ex. I-1-b-15],Kill rate in % after 7d,[4]; 500 g/ha,100%
Cc1ccc(-c2cc(F)ccc2F)cc1-c1c(OC(=O)C(C)(C)C)n2n(c1=O)CCCC2 [Ex. I-1-b-16],Kill rate in % after 7d,[2],100%
Cc1ccc(-c2cccc([N+](=O)[O-])c2)cc1-c1c(OC(=O)C(C)(C)C)n2n(c1=O)CCCC2 [Ex. I-1-b-26],Kill rate in % after 5d,[3]; 500 g/ha active compound,100%
Cc1ccc(-c2ccc(OC(F)(F)F)cc2)cc1-c1c(OC(=O)C(C)(C)C)n2n(c1=O)CCCC2 [Ex. I-1-b-27],Kill rate in % after 7d,[2],100%
Cc1ccc(-c2ccc(Oc3ccccc3)cc2)cc1-c1c(OC(=O)C(C)(C)C)n2n(c1=O)CCCC2 [Ex. I-1-b-28],Kill rate in % after 5d,[1]; 500 g/ha,100%
Cc1ccc(-c2ccc(C(C)C)cc2)cc1-c1c(OC(=O)C(C)(C)C)n2n(c1=O)CCCC2 [Ex. I-1-b-30],Kill rate in % after 5d,[3]; 500 g/ha active compound,100%
Cc1ccc(-c2ccc(Cl)cc2)cc1-c1c(OC(=O)C(C)C)n2n(c1=O)CCCC2 [Ex. I-1-b-32],Kill rate in % after 7d,[4]; 100 g/ha,100%
Cc1ccc(-c2ccc(F)cc2)cc1-c1c(OC(=O)C2CC2)n2n(c1=O)CCCC2 [Ex. I-1-b-33],Kill rate in % after 5d,[3]; 100 g/ha active compound,100%
Cc1cc(C)c(-c2c(OC(=O)C(C)(C)C)n3n(c2=O)CCCC3)c(C)c1-c1ccc(F)cc1 [Ex. I-1-b-34],Kill rate in % after 5d,[1]; 500 g/ha,90%
CCOC(=O)Oc1c(-c2cc(-c3ccccc3C)ccc2C)c(=O)n2n1CCCC2 [Ex. I-1-c-7],Kill rate in % after 5d,[1]; 500 g/ha,100%
CCOC(=O)Oc1c(-c2cc(-c3ccc(C)cc3)ccc2C)c(=O)n2n1CCCC2 [Ex. I-1-c-9],Kill rate in % after 7d,[2],100%
CCOC(=O)Oc1c(-c2cc(-c3ccc(Cl)cc3Cl)ccc2C)c(=O)n2n1CCCC2 [Ex. I-1-c-11],Kill rate in % after 5d,[1]; 500 g/ha,100%
CCOC(=O)Oc1c(-c2cc(-c3cc(Cl)ccc3Cl)ccc2C)c(=O)n2n1CCCC2 [Ex. I-1-c-12],Kill rate in % after 5d,[1]; 500 g/ha,100%
CCOC(=O)Oc1c(-c2cc(-c3ccc(Cl)c(Cl)c3)ccc2C)c(=O)n2n1CCCC2 [Ex. I-1-c-13],Kill rate in % after 7d,[4]; 500 g/ha,83%
CCOC(=O)Oc1c(-c2cc(-c3cc(Cl)cc(Cl)c3)ccc2C)c(=O)n2n1CCCC2 [Ex. I-1-c-14],Kill rate in % after 7d,[2],100%
CCOC(=O)Oc1c(-c2cc(-c3cc(F)ccc3F)ccc2C)c(=O)n2n1CCCC2 [Ex. I-1-c-16],Kill rate in % after 5d,[1]; 500 g/ha,100%
CCOC(=O)Oc1c(-c2cc(-c3ccc(F)c(Cl)c3)ccc2C)c(=O)n2n1CCCC2 [Ex. I-1-c-17],Kill rate in % after 5d,[1]; 500 g/ha,100%
same,Kill rate in % after 7d,[4]; 500 g/ha,83%
CCOC(=O)Oc1c(-c2cc(-c3cccc(C(F)(F)F)c3)ccc2C)c(=O)n2n1CCCC2 [Ex. I-1-c-18],Kill rate in % after 7d,[4]; 500 g/ha,100%
Cc1ccc(-c2cccc(Cl)c2)cc1-c1c(OC(=O)C(C)(C)C)n2n(c1=O)CCOCC2 [Ex. I-2-b-2],Kill rate in % after 7d,[4]; 500 g/ha,100%
Cc1ccc(-c2ccc(Cl)cc2)cc1-c1c(OC(=O)C(C)(C)C)n2n(c1=O)CCOCC2 [Ex. I-2-b-3],Kill rate in % after 7d,[4]; 500 g/ha,83%
Cc1ccc(-c2cccc(F)c2)cc1-c1c(OC(=O)C(C)(C)C)n2n(c1=O)CCOCC2 [Ex. I-2-b-5],Kill rate in % after 7d,[4]; 500 g/ha,100%
Cc1ccc(-c2ccc(F)cc2)cc1-c1c(OC(=O)C(C)(C)C)n2n(c1=O)CCOCC2 [Ex. I-2-b-6],Kill rate in % after 5d,[1]; 100 g/ha,90%
Cc1ccc(-c2cccc(Cl)c2Cl)cc1-c1c(OC(=O)C(C)(C)C)n2n(c1=O)CCOCC2 [Ex. I-2-b-10],Kill rate in % after 5d,[1]; 500 g/ha,100%
Cc1ccc(-c2ccc(Cl)c(Cl)c2)cc1-c1c(OC(=O)C(C)(C)C)n2n(c1=O)CCOCC2 [Ex. I-2-b-13],Kill rate in % after 5d,[3]; 500 g/ha active compound,100%
Cc1ccc(-c2ccc(F)c(Cl)c2)cc1-c1c(OC(=O)C(C)(C)C)n2n(c1=O)CCOCC2 [Ex. I-2-b-17],Kill rate in % after 7d,[2],100%
Cc1ccc(-c2cccc(C(F)(F)F)c2)cc1-c1c(OC(=O)C(C)(C)C)n2n(c1=O)CCOCC2 [Ex. I-2-b-19],Kill rate in % after 7d,[2],100%
Cc1ccc(-c2ccc(C(F)(F)F)cc2)cc1-c1c(OC(=O)C(C)(C)C)n2n(c1=O)CCOCC2 [Ex. I-2-b-20],Kill rate in % after 7d,[4]; 500 g/ha,100%
COc1ccccc1-c1ccc(C)c(-c2c(OC(=O)C(C)(C)C)n3n(c2=O)CCOCC3)c1 [Ex. I-2-b-21],Kill rate in % after 5d,[3]; 500 g/ha active compound,100%
Cc1ccc(-c2ccc(C(C)C)cc2)cc1-c1c(OC(=O)C(C)(C)C)n2n(c1=O)CCOCC2 [Ex. I-2-b-30],Kill rate in % after 5d,[3]; 500 g/ha active compound,100%
Cc1cc(C)c(-c2c(OC(=O)C(C)(C)C)n3n(c2=O)CCOCC3)c(C)c1-c1ccc(F)cc1 [Ex. I-2-b-32],Kill rate in % after 7d,[2],100%
CCOC(=O)Oc1c(-c2cc(-c3cccc(Cl)c3)ccc2C)c(=O)n2n1CCOCC2 [Ex. I-2-c-2],Kill rate in % after 7d,[4]; 500 g/ha,83%
CCOC(=O)Oc1c(-c2cc(-c3ccc(Cl)cc3)ccc2C)c(=O)n2n1CCOCC2 [Ex. I-2-c-3],Kill rate in % after 7d,[4]; 500 g/ha,100%
CCOC(=O)Oc1c(-c2cc(-c3ccccc3F)ccc2C)c(=O)n2n1CCOCC2 [Ex. I-2-c-4],Kill rate in % after 7d,[2],100%
CCOC(=O)Oc1c(-c2cc(-c3cccc(F)c3)ccc2C)c(=O)n2n1CCOCC2 [Ex. I-2-c-5],Kill rate in % after 7d,[4]; 500 g/ha,100%
CCOC(=O)Oc1c(-c2cc(-c3ccccc3C)ccc2C)c(=O)n2n1CCOCC2 [Ex. I-2-c-7],Kill rate in % after 7d,[2],100%
CCOC(=O)Oc1c(-c2cc(-c3ccc(C)cc3)ccc2C)c(=O)n2n1CCOCC2 [Ex. I-2-c-9],Kill rate in % after 7d,[2],100%
CCOC(=O)Oc1c(-c2cc(-c3cccc(Cl)c3Cl)ccc2C)c(=O)n2n1CCOCC2 [Ex. I-2-c-10],Kill rate in % after 5d,[1]; 500 g/ha,100%
CCOC(=O)Oc1c(-c2cc(-c3ccc(Cl)cc3Cl)ccc2C)c(=O)n2n1CCOCC2 [Ex. I-2-c-11],Kill rate in % after 7d,[2],100%
CCOC(=O)Oc1c(-c2cc(-c3cc(Cl)ccc3Cl)ccc2C)c(=O)n2n1CCOCC2 [Ex. I-2-c-12],Kill rate in % after 7d,[2],100%
CCOC(=O)Oc1c(-c2cc(-c3ccc(Cl)c(Cl)c3)ccc2C)c(=O)n2n1CCOCC2 [Ex. I-2-c-13],Kill rate in % after 7d,[4]; 500 g/ha,100%
CCOC(=O)Oc1c(-c2cc(-c3cc(Cl)cc(Cl)c3)ccc2C)c(=O)n2n1CCOCC2 [Ex. I-2-c-14],Kill rate in % after 7d,[2],100%
CCOC(=O)Oc1c(-c2cc(-c3ccc(F)cc3F)ccc2C)c(=O)n2n1CCOCC2 [Ex. I-2-c-15],Kill rate in % after 7d,[2],100%
CCOC(=O)Oc1c(-c2cc(-c3ccc(F)c(Cl)c3)ccc2C)c(=O)n2n1CCOCC2 [Ex. I-2-c-17],Kill rate in % after 7d,[2],100%
CCOC(=O)Oc1c(-c2cc(-c3cccc(C(F)(F)F)c3)ccc2C)c(=O)n2n1CCOCC2 [Ex. I-2-c-19],Kill rate in % after 7d,[2],100%
CCOC(=O)Oc1c(-c2cc(-c3ccc(C(F)(F)F)cc3)ccc2C)c(=O)n2n1CCOCC2 [Ex. I-2-c-20],Kill rate in % after 7d,[4]; 500 g/ha,100%
CCOC(=O)Oc1c(-c2cc(-c3ccc(OC)cc3)ccc2C)c(=O)n2n1CCOCC2 [Ex. I-2-c-23],Kill rate in % after 5d,[1]; 500 g/ha,100%
CCOC(=O)Oc1c(-c2cc(-c3cccc([N+](=O)[O-])c3)ccc2C)c(=O)n2n1CCOCC2 [Ex. I-2-c-26],Kill rate in % after 5d,[1]; 100 g/ha,90%
Cc1ccc(-c2cccc(Cl)c2Cl)cc1-c1c(O)n2n(c1=O)CCCC2 [Example I-1-a-10],Kill rate in % after 5d,[1]; 500 g/ha,90%
Cc1ccc(-c2ccc(Cl)cc2Cl)cc1-c1c(O)n2n(c1=O)CCCC2 [Example I-1-a-11],Kill rate in % after 5d,[1]; 500 g/ha,100%
Cc1ccc(-c2ccc(Cl)c(Cl)c2)cc1-c1c(O)n2n(c1=O)CCCC2 [Example I-1-a-13],Kill rate in % after 7d,[2],100%
Cc1ccc(-c2ccc(F)c(Cl)c2)cc1-c1c(O)n2n(c1=O)CCCC2 [Example I-1-a-17],Kill rate in % after 5d,[1]; 500 g/ha,90%
Cc1ccc(-c2cccc(Cl)c2)cc1-c1c(O)n2n(c1=O)CCOCC2 [Example I-2-a-2],Kill rate in % after 5d,[1]; 500 g/ha,90%
Cc1ccc(-c2ccc(F)cc2)cc1-c1c(O)n2n(c1=O)CCOCC2 [Example I-2-a-6],Kill rate in % after 7d,[4]; 500 g/ha,100%
Cc1ccc(-c2ccc(Cl)c(Cl)c2)cc1-c1c(O)n2n(c1=O)CCOCC2 [Example I-2-a-13],Kill rate in % after 7d,[2],100%
Cc1ccc(-c2cccc([N+](=O)[O-])c2)cc1-c1c(O)n2n(c1=O)CCOCC2 [Example I-2-a-26],Kill rate in % after 7d,[2],100%
